Patent US10688188B2, “Polytetrafluoroethylene co-polymer emulsions” (W. L. Gore & Associates, Inc., priority 2012, dated 2020)

Assay: Solubility statements
Type: physicochemical

SMILES | solubility in acetone (DSP in acetone) | solubility in Fluorinert (Fluorinert FC77) | solubility in acetone (Solution V) (1.0 g in 100 g Solution V)
C[C@@H]1C[C@H]2[C@@H]3CCC4=CC(=O)C=C[C@]4(C)[C@@]3(F)[C@@H](O)C[C@]2(C)[C@@]1(O)C(=O)COP(=O)(O)O [DSP, dexamethasone sodium phosphate] | nonsolvent | nonsolvent | 
C[C@@H]1C[C@H]2[C@@H]3CCC4=CC(=O)C=C[C@]4(C)[C@@]3(F)[C@@H](O)C[C@]2(C)[C@@]1(O)C(=O)CO [dexamethasone] |  |  | dissolve completely
